According to US10792277B2, “Methods of treatment of fibrosis and cancers” (GENFIT, priority 2013, dated 2020):

Tests used:
Test in all cases: Gene expression (quantitative RT-PCR) in TGFβ1-activated hHSC
Format in all cases: cell-based, human
[1] = system: Col1α1 gene expression in hHSC; details: 3 μM; TGFβ1 1 ng/mL, 24 hours, serum free
Method: (§1) The human primary hepatic stellate cells (hHSC) (ScienCell) were cultured under standard conditions, as described above. For experiments to determine gene expression patterns, hHSC were plated at a density of 1.4×10^5 cells/well into 12-well plates and were cultured overnight. Next day, culture medium was removed, cells were washed with PBS (Invitrogen cat #14190) and serum-free and SteCGS-free medium was added for an additional 16 hours. Cells were treated with compounds in addition to TGFβ1 (1 ng/mL) in a serum-free and SteCGS-free medium for 24 hours.
Total RNA was isolated using RNeasy® Mini Kit (Qiagen) following manufacturer's instructions. […]
Quantitative PCR was then carried out using the MyiQ Single-Color Real-Time PCR Detection or the iCycler iQ Multiplex Real-Time PCR Detection System (both systems from Biorad). […]
(§2) For each gene, the standard curves were drawn by selecting the best points (at least three points) in order to have PCR reaction efficiency close to 100% and a correlation coefficient close to 1. Expression levels were determined using the standard curve equation for both the housekeeping gene and the target gene (taking into account the specific PCR efficiency of each target gene).
(§3) The induction factor vs TGFβ1 was determined as follow: […]

[2] = system: Col4α1 gene expression in hHSC; details: 10 μM; TGFβ1 1 ng/mL, 24 hours, serum free
Method: as §1
(§4) Total RNA was isolated using RNeasy® Mini Kit (Qiagen) following manufacturer's instructions. 250 ng of total RNA were reverse transcribed in cDNA using M-MLV RT (Moloney Murine Leukemia Virus Reverse Transcriptase) (Invitrogen cat #28025) in presence of RT buffer 1× (Invitrogen), 1 mM DTT (Invitrogen), 0.18 mM dNTPs (Promega), 200 ng pdN6 (Amersham) and 30 U of RNase inhibitor (Promega).
(§5) Quantitative PCR was then carried out using the MyiQ Single-Color Real-Time PCR Detection or the iCycler iQ Multiplex Real-Time PCR Detection System (both systems from Biorad). Briefly, PCR reactions were performed in 96 Well plates on 5 μL of 5× diluted reverse transcription mix using the iQ SYBR Green Supermix kit. The experimental conditions were: 25 μL of volume reaction, 3 mM of MgCl2, and 0.5 μL each of reverse and forward primers (10 pMol).
(§6) Expression levels were normalized using the expression of 36B4 gene as reference.
as §2, §3
(§7) Thus, lower the induction factor is more the compound of interest inhibits the TGFβ1 activation of hHSC. Experimental results were expressed as mean±standard deviation (SD) of the induction factor.
(§8) The expression of both profibrotic and cancer associated genes was induced in the primary human hepatic stellate cells (hHSCs) by the treatment with the TGFβ1 (1 ng/mL) in serum free conditions. […] The expression of the genes of interest in both treated and untreated hHSCs was determined by the quantitative RT-PCR technique, following 24 hours of exposure to the TGFβ1.
(§9) Experimental results were expressed as Emax values that indicate the maximum inhibition, which was obtained at the concentration of 10 μmole/L. Statistical analyses were performed using an one-way ANOVA followed by Bonferroni post-hoc tests, using Sigma Plot 11.0 software.

[3] = system: αSMA gene expression in hHSC; details: 10 μM; TGFβ1 1 ng/mL, 24 hours, serum free
Method: as §1, §4, §5, §6, §2, §3, §7, §8, §9

[4] = system: HGFR gene expression in hHSC; details: 10 μM; TGFβ1 1 ng/mL, 24 hours, serum free
Method: as §1, §4, §5, §6, §2, §3, §7, §8, §9

[5] = system: VEGFR1 gene expression in hHSC; details: 10 μM; TGFβ1 1 ng/mL, 24 hours, serum free
Method: as §1, §4, §5, §6, §2, §3, §7, §8, §9

[6] = system: FGFR1 gene expression in hHSC; details: 3 μM; TGFβ1 1 ng/mL, 24 hours, serum free
Method: as §1, with “Next day, culture medium was removed, cells were washed with PBS (Invitrogen cat #14190) and serum-free and SteCGS-free medium was added for an additional 16 hours.” left out
(§10) Total RNA was isolated using RNeasy® Mini Kit (Qiagen) following manufacturer's instructions.
as §5, §6
(§11) Expression levels were determined using the standard curve equation for both the housekeeping gene and the target gene (taking into account the specific PCR efficiency of each target gene).
as §3

[7] = system: TGFβR1 gene expression in hHSC; details: 10 μM; TGFβ1 1 ng/mL, 24 hours, serum free
Method: as §1, with “Next day, culture medium was removed, cells were washed with PBS (Invitrogen cat #14190) and serum-free and SteCGS-free medium was added for an additional 16 hours.” left out
as §10, §5, §6, §11, §3

CNC(=O)c1cc(Oc2ccc(NC(=O)Nc3ccc(Cl)c(C(F)(F)F)c3)cc2)ccn1 [Sorafenib] was tested, and the “Emax, reduction in Col1α1 gene expression vs hHSC treated with TGFβ1 alone” value [1] was −93%, the “Emax, reduction in Col4α1 gene expression vs hHSC treated with TGFβ1 alone” value [2] was −93% and the “Emax, reduction in αSMA gene expression vs hHSC treated with TGFβ1 alone” value [3] was −95%. For the same molecule, the “Emax, reduction in HGFR gene expression vs hHSC treated with TGFβ1 alone” value [4] was −79%, the “Emax, reduction in VEGFR1 gene expression vs hHSC treated with TGFβ1 alone” value [5] was −95% and the “Emax, reduction in FGFR1 gene expression vs hHSC treated with TGFβ1 alone” value [6] was −43%. For the same molecule, the “Emax, reduction in TGFβR1 gene expression vs hHSC treated with TGFβ1 alone” value [7] was −80%.
